{"source": "ChEMBL document CHEMBL3632515", "about": "“Discovery of an L-alanine ester prodrug of the Hsp90 inhibitor, MPC-3100” (Bioorg Med Chem Lett, 2015)", "key": {"[1]": {"assay": "Half life in phosphate buffer at pH 7.4", "type": "physicochemical"}, "[2]": {"assay": "Half life in simulated gastric fluid at pH 1.2 in presence of pepsin", "type": "ADME", "details": "simulated gastric fluid with pepsin"}, "Mus musculus [3]": {"test_system": "Mus musculus", "assay": "Oral bioavailability in mouse assessed as MPC-3100 at 265 mg/kg administered with 2% CMC by LC-ESI-MS/MS analysis", "type": "ADME, organism-based", "details": "in vivo"}, "[4]": {"assay": "Half life in monkey plasma", "type": "ADME, cell-free, Macaca mulatta", "details": "rhesus monkey"}, "[5]": {"assay": "Half life in mouse liver microsomes in absence of NADPH", "type": "ADME"}, "[6]": {"assay": "Half life in mouse plasma", "type": "ADME, cell-free"}, "Mus musculus [7]": {"test_system": "Mus musculus", "assay": "Cmax in mouse assessed as MPC-3100 at 265 mg/kg, po administered with 2% CMC by LC-ESI-MS/MS analysis", "type": "ADME, organism-based", "set-up": "dose 265 mg/kg, route oral", "details": "in vivo"}, "[8]": {"assay": "Half life in mouse liver microsomes in presence of NADPH", "type": "ADME"}, "Mus musculus [9]": {"test_system": "Mus musculus", "assay": "AUC in mouse assessed as MPC-3100 at 265 mg/kg, po administered with 2% CMC by LC-ESI-MS/MS analysis", "type": "ADME, organism-based", "details": "in vivo"}, "[10]": {"assay": "Apparent permeability of the compound at pH 6.2", "type": "physicochemical", "details": "not told"}, "Plasma [11]": {"test_system": "Plasma", "assay": "Prodrug conversion in mouse plasma assessed as formation of MPC-3100", "type": "ADME, cell-free"}, "Liver microsome [12]": {"test_system": "Liver microsome", "assay": "Prodrug conversion in human liver microsomes assessed as formation of MPC-3100", "type": "ADME"}, "[13]": {"assay": "Half life in simulated intestinal fluid at pH 6.8 in presence of pancreatin", "type": "ADME", "details": "simulated intestinal fluid with pancreatin"}, "[14]": {"assay": "Kinetic solubility of the compound at pH 6.5", "type": "physicochemical", "details": "buffer, read-out: Kinetic_solubility"}, "Liver [15]": {"test_system": "Liver", "assay": "Prodrug conversion in mouse liver microsomes assessed as formation of MPC-3100", "type": "ADME"}, "[16]": {"assay": "Half life in human liver microsomes in absence of NADPH", "type": "ADME"}, "[17]": {"assay": "Half life in human plasma", "type": "ADME, cell-free"}, "Mus musculus [18]": {"test_system": "Mus musculus", "assay": "Tmax in mouse assessed as MPC-3100 at 265 mg/kg, po administered with 2% CMC by LC-ESI-MS/MS analysis", "type": "ADME, organism-based", "details": "in vivo"}, "[19]": {"assay": "Aqueous solubility of the compound in simulated intestinal fluid at pH 6.5 to 6.8", "type": "physicochemical"}, "Mus musculus [20]": {"test_system": "Mus musculus", "assay": "Toxicity in mouse xenografted with human NCI-N87 cells assessed as body weight loss at 265 mg/kg, po", "type": "organism-based", "details": "in vivo"}, "[21]": {"assay": "Half life in simulated gastric fluid at pH 1.2", "type": "ADME"}, "[22]": {"assay": "Half life in human liver microsomes in presence of NADPH", "type": "ADME"}, "[23]": {"assay": "Half life in simulated intestinal fluid at pH 6.8", "type": "ADME"}, "[24]": {"assay": "AUC in mouse at 200 mg/kg, po administered with 40% captisol by LC-ESI-MS/MS analysis", "type": "ADME, organism-based", "details": "in vivo"}, "NCI-N87 [25]": {"test_system": "NCI-N87", "assay": "Antitumor activity against human NCI-N87 cells xenografted in mouse assessed as tumor growth inhibition at 200 mg/kg, po relative to control", "type": "functional", "details": "read-out: TGI"}, "[26]": {"assay": "Drug level in simulated intestinal fluid treated with MPC-0767 at pH 6.8 in presence of pancreatin", "type": "physicochemical", "details": "simulated gi fluid"}, "[27]": {"assay": "Tmax in mouse at 200 mg/kg, po administered with 2% CMC by LC-ESI-MS/MS analysis", "type": "ADME, organism-based", "details": "in vivo"}, "[28]": {"assay": "Oral bioavailability in mouse at 200 mg/kg administered with 40% captisol by LC-ESI-MS/MS analysis", "type": "ADME, organism-based", "details": "in vivo"}, "Liver [29]": {"test_system": "Liver", "assay": "Drug level in mouse liver microsomes treated with MPC-0767", "type": "ADME"}, "[30]": {"assay": "Cmax in mouse at 200 mg/kg, po administered with 2% CMC by LC-ESI-MS/MS analysis", "type": "ADME, organism-based", "set-up": "dose 200 mg/kg, route oral", "details": "in vivo"}, "Liver microsome [31]": {"test_system": "Liver microsome", "assay": "Drug level in human liver microsomes treated with MPC-0767", "type": "ADME"}, "[32]": {"assay": "Oral bioavailability in mouse at 200 mg/kg administered with 2% CMC by LC-ESI-MS/MS analysis", "type": "ADME, organism-based", "details": "in vivo"}, "[33]": {"assay": "Aqueous solubility of the compound in simulated intestinal fluid at pH 6.8", "type": "physicochemical"}, "Plasma [34]": {"test_system": "Plasma", "assay": "Drug level in mouse plasma treated with MPC-0767", "type": "ADME, cell-free"}, "[35]": {"assay": "AUC in mouse at 200 mg/kg, po administered with 2% CMC by LC-ESI-MS/MS analysis", "type": "ADME, organism-based", "details": "in vivo"}, "[36]": {"assay": "Cmax in mouse at 200 mg/kg, po administered with 40% captisol by LC-ESI-MS/MS analysis", "type": "ADME, organism-based", "set-up": "dose 200 mg/kg, route oral", "details": "in vivo"}, "[37]": {"assay": "Tmax in mouse at 200 mg/kg, po administered with 40% captisol by LC-ESI-MS/MS analysis", "type": "ADME, organism-based", "details": "in vivo"}, "Mus musculus [38]": {"test_system": "Mus musculus", "assay": "Oral bioavailability in mouse assessed as MPC-3100", "type": "ADME, organism-based", "details": "in vivo"}, "NCI-N87 [39]": {"test_system": "NCI-N87", "assay": "Antitumor activity against human NCI-N87 cells xenografted in mouse assessed as tumor regression", "type": "functional"}, "[40]": {"assay": "Toxicity in po dosed nu+/- mouse", "type": "organism-based", "details": "in vivo"}, "Mus musculus [41]": {"test_system": "Mus musculus", "assay": "Toxicity in nu+/- mouse assessed as mortality at 286 mg/kg, po", "type": "organism-based", "details": "in vivo"}, "NCI-N87 [42]": {"test_system": "NCI-N87", "assay": "Antitumor activity against human NCI-N87 cells xenografted in mouse assessed as tumor growth inhibition at 265 mg/kg, po", "type": "functional, organism-based"}}, "note": "Active and inactive are the calls of the source. No cut-off for these calls is given here."}
{"smiles": "CS(=O)(=O)O.C[C@H](N)C(=O)O[C@@H](C)C(=O)N1CCC(CCn2c(Sc3cc4c(cc3Br)OCO4)nc3c(N)ncnc32)CC1", "values": [{"measurement": "half-life", "setting": "[1]", "result": 2.42, "unit": "h"}, {"measurement": "half-life", "setting": "[2]", "result": "> 4", "unit": "h"}, {"measurement": "F", "setting": "Mus musculus [3]", "result": 56, "unit": "%"}, {"measurement": "half-life", "setting": "[4]", "result": 5, "unit": "h"}, {"measurement": "half-life", "setting": "[5]", "result": "< 2", "unit": "min"}, {"measurement": "half-life", "setting": "[6]", "result": "< 2", "unit": "min"}, {"measurement": "Cmax", "setting": "Mus musculus [7]", "result": 21562, "unit": "ng/mL"}, {"measurement": "half-life", "setting": "[8]", "result": "< 2", "unit": "min"}, {"measurement": "AUC", "setting": "Mus musculus [9]", "result": 94194, "unit": "ng·h/mL"}, {"measurement": "Papp", "setting": "[10]", "result": 2.7, "unit": "×10⁻⁶ cm/s"}, {"measurement": "Drug metabolism", "setting": "Plasma [11]", "result": "metabolite_detected"}, {"measurement": "Drug metabolism", "setting": "Liver microsome [12]", "result": "metabolite_detected"}, {"measurement": "half-life", "setting": "[13]", "result": 0.367, "unit": "h"}, {"measurement": "solubility kinetic", "setting": "[14]", "result": 536, "unit": "µg/mL"}, {"measurement": "Drug metabolism", "setting": "Liver [15]", "result": "metabolite_detected"}, {"measurement": "half-life", "setting": "[16]", "result": 2, "unit": "min"}, {"measurement": "half-life", "setting": "[17]", "result": 2.48, "unit": "h"}, {"measurement": "Tmax", "setting": "Mus musculus [18]", "result": 1, "unit": "h"}, {"measurement": "solubility", "setting": "[19]", "result": "> 1000", "unit": "µg/mL"}, {"measurement": "Activity", "setting": "Mus musculus [20]", "result": "Non-toxic"}, {"measurement": "half-life", "setting": "[21]", "result": "> 4", "unit": "h"}, {"measurement": "half-life", "setting": "[22]", "result": 2, "unit": "min"}, {"measurement": "half-life", "setting": "[23]", "result": 2.88, "unit": "h"}]}
{"smiles": "C[C@H](O)C(=O)N1CCC(CCn2c(Sc3cc4c(cc3Br)OCO4)nc3c(N)ncnc32)CC1", "values": [{"measurement": "AUC", "setting": "[24]", "result": 113000, "unit": "ng·h/mL"}, {"measurement": "inhibition in vivo at 200 mg/kg", "setting": "NCI-N87 [25]", "result": 46, "unit": "%"}, {"measurement": "Drug metabolism", "setting": "[26]", "result": "metabolite_detected"}, {"measurement": "Tmax", "setting": "[27]", "result": 0.3, "unit": "h"}, {"measurement": "bioavailability", "setting": "[28]", "result": 67, "unit": "%"}, {"measurement": "Drug metabolism", "setting": "Liver [29]", "result": "metabolite_detected"}, {"measurement": "Cmax", "setting": "[30]", "result": 7370, "unit": "ng/mL"}, {"measurement": "Drug metabolism", "setting": "Liver microsome [31]", "result": "metabolite_detected"}, {"measurement": "bioavailability", "setting": "[32]", "result": 21, "unit": "%"}, {"measurement": "Papp", "setting": "[10]", "result": 420, "unit": "×10⁻⁶ cm/s"}, {"measurement": "solubility", "setting": "[33]", "result": 7.5, "unit": "µg/mL"}, {"measurement": "solubility kinetic", "setting": "[14]", "result": 10.2, "unit": "µg/mL"}, {"measurement": "Drug metabolism", "setting": "Plasma [34]", "result": "metabolite_detected"}, {"measurement": "AUC", "setting": "[35]", "result": 35100, "unit": "ng·h/mL"}, {"measurement": "Cmax", "setting": "[36]", "result": 24900, "unit": "ng/mL"}, {"measurement": "Tmax", "setting": "[37]", "result": 1, "unit": "h"}]}
{"smiles": "C[C@H](OC(=O)[C@@H](N)CCCCN)C(=O)N1CCC(CCn2c(Sc3cc4c(cc3Br)OCO4)nc3c(N)ncnc32)CC1", "values": [{"measurement": "F", "setting": "Mus musculus [38]", "result": "> 40", "unit": "%"}, {"measurement": "TGI", "setting": "NCI-N87 [39]", "result": ">40", "unit": "%"}, {"measurement": "solubility", "setting": "[19]", "result": "> 1000", "unit": "µg/mL"}]}
{"smiles": "C[C@H](N)C(=O)O[C@@H](C)C(=O)N1CCC(CCn2c(Sc3cc4c(cc3Br)OCO4)nc3c(N)ncnc32)CC1.Cl.Cl", "values": [{"measurement": "MTD", "setting": "[40]", "result": 252, "unit": "mg/kg"}]}
{"smiles": "C[C@H](OC(=O)[C@@H](N)CCCCN)C(=O)N1CCC(CCn2c(Sc3cc4c(cc3Br)OCO4)nc3c(N)ncnc32)CC1.Cl.Cl.Cl", "values": [{"measurement": "Activity", "setting": "Mus musculus [41]", "result": "Toxic"}]}
{"smiles": "C[C@H](N)C(=O)O[C@@H](C)C(=O)N1CCC(CCn2c(Sc3cc4c(cc3Br)OCO4)nc3c(N)ncnc32)CC1", "values": [{"measurement": "TGI", "setting": "NCI-N87 [42]", "result": "Active"}]}
